Source: ChEMBL document CHEMBL1201862, “PubChem BioAssay data set” (2004)
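Tested at 5 concentrations; 48 h exposure; 96-well plates; endpoints linearly interpolated, else capped at highest concentration. Here, GI50 denotes the concentration required for 50% inhibition of growth.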 The source made the active and inactive calls. No stated cut-off is given here; in the data, active = GI50 up to about 1.1 µM and inactive = higher.

Key:
Assay in all cases: NCI-60 cell line screen, 48 h
[1] = test system: ACHN
[2] = test system: CCRF-CEM
[3] = test system: COLO 205
[4] = test system: DU-145
[5] = test system: HL-60
[6] = test system: HOP-62
[7] = test system: Hs-578T
[8] = test system: NCI-H460
[9] = test system: NCI/ADR-RES
[10] = test system: OVCAR-4
[11] = test system: OVCAR-5
[12] = test system: PC-3
[13] = test system: RXF 393
[14] = test system: SK-MEL-5
[15] = test system: SN12C
[16] = test system: SNB-19
[17] = test system: T47D
[18] = test system: UACC-257
[19] = test system: UO-31
[20] = test system: SNB-75

Compound	GI50 [1]	GI50 [2]	GI50 [3]	GI50 [4]	GI50 [5]	GI50 [6]	GI50 [7]	GI50 [8]	GI50 [9]	GI50 [10]	GI50 [11]	GI50 [12]	GI50 [13]	GI50 [14]	GI50 [15]	GI50 [16]	GI50 [17]	GI50 [18]	GI50 [19]	GI50 [20]
N#CC12C(=O)N=C(N)C1(C#N)C(c1ccco1)NC1=C2CCCC1 (stereo not drawn)	> 100 µM (inactive)	> 100 µM (inactive)	> 100 µM (inactive)	> 100 µM (inactive)	> 100 µM (inactive)	> 100 µM (inactive)	> 100 µM (inactive)	> 100 µM (inactive)	> 100 µM (inactive)	> 100 µM (inactive)	> 100 µM (inactive)	> 100 µM (inactive)	> 100 µM (inactive)	> 100 µM (inactive)	> 100 µM (inactive)	> 100 µM (inactive)	> 100 µM (inactive)	> 100 µM (inactive)	> 100 µM (inactive)	–
CCCCCN1CCN(c2ncccn2)CC1	> 100 µM (inactive)	> 100 µM (inactive)	> 100 µM (inactive)	> 100 µM (inactive)	> 100 µM (inactive)	> 100 µM (inactive)	> 100 µM (inactive)	–	> 100 µM (inactive)	> 100 µM (inactive)	> 100 µM (inactive)	> 100 µM (inactive)	> 100 µM (inactive)	> 100 µM (inactive)	> 100 µM (inactive)	> 100 µM (inactive)	> 100 µM (inactive)	> 100 µM (inactive)	> 100 µM (inactive)	> 100 µM (inactive)
CN(C)CN1C(=O)S/C(=C2\C(=O)N(CN(C)C)c3ccccc32)C1=O	43.7 µM (inactive)	–	36.4 µM (inactive)	32.1 µM (inactive)	18.2 µM (inactive)	41.6 µM (inactive)	34.7 µM (inactive)	32.3 µM (inactive)	40.2 µM (inactive)	55.1 µM (inactive)	> 100 µM (inactive)	45.6 µM (inactive)	19.9 µM (inactive)	38.6 µM (inactive)	23.7 µM (inactive)	67.5 µM (inactive)	39.4 µM (inactive)	32.7 µM (inactive)	31.3 µM (inactive)	22.2 µM (inactive)
CN(C)/N=N/c1nc2c(c(=O)n(C)c(=O)n2C)n1C	> 100 µM (inactive)	> 100 µM (inactive)	> 100 µM (inactive)	> 100 µM (inactive)	–	> 100 µM (inactive)	> 100 µM (inactive)	> 100 µM (inactive)	> 100 µM (inactive)	> 100 µM (inactive)	> 100 µM (inactive)	> 100 µM (inactive)	> 100 µM (inactive)	> 100 µM (inactive)	> 100 µM (inactive)	> 100 µM (inactive)	14.3 µM (inactive)	> 100 µM (inactive)	> 100 µM (inactive)	> 100 µM (inactive)
CC(=O)C(I(OS(=O)(=O)c1ccc(C)cc1)c1ccccc1)=P(c1ccccc1)(c1ccccc1)c1ccccc1	> 100 µM (inactive)	26.9 µM (inactive)	17.1 µM (inactive)	18.8 µM (inactive)	30.3 µM (inactive)	23.3 µM (inactive)	23 µM (inactive)	58.5 µM (inactive)	> 100 µM (inactive)	14.8 µM (inactive)	23 µM (inactive)	26.5 µM (inactive)	42.1 µM (inactive)	22.1 µM (inactive)	15.9 µM (inactive)	38.5 µM (inactive)	27 µM (inactive)	22.6 µM (inactive)	> 100 µM (inactive)	–
Nc1nc(I)nc2c1ncn2C1OC(COS(N)(=O)=O)C(O)C1O (stereo not drawn)	< 0.0117 µM (active)	< 0.01 µM (active)	< 0.01 µM (active)	< 0.01 µM (active)	–	0.0218 µM (active)	< 0.01 µM (active)	0.0126 µM (active)	< 0.01 µM (active)	< 0.01 µM (active)	< 0.01 µM (active)	< 0.01 µM (active)	0.0148 µM (active)	< 0.01 µM (active)	< 0.01 µM (active)	< 0.01 µM (active)	< 0.01 µM (active)	0.0163 µM (active)	0.0187 µM (active)	< 0.01 µM (active)
O=C(Cn1c2ccc(Br)cc2c2nc3ccccc3nc21)Nc1ccccc1	50 µM (inactive)	11.9 µM (inactive)	50.6 µM (inactive)	59.2 µM (inactive)	–	27.9 µM (inactive)	26.7 µM (inactive)	31.8 µM (inactive)	20 µM (inactive)	20.9 µM (inactive)	47 µM (inactive)	18 µM (inactive)	20.2 µM (inactive)	34.6 µM (inactive)	42.6 µM (inactive)	39.7 µM (inactive)	20.1 µM (inactive)	78.2 µM (inactive)	42.2 µM (inactive)	21.3 µM (inactive)
